This test concerns WiDr human colon cancer cells. The test is described as follows: Proliferation inhibitory action on WiDr human colon cancer cells (CellTiter-Glo luminescence). It counts as cell-based. Conditions: 72 h, 3 days culture, CellTiter-Glo luciferase luminescence as indicator of living cells. On the procedure: WiDr human colon cancer cells, which had been cultured in an RPMI1640 medium (manufactured by SIGMA) containing 10% fetal bovine serum, penicillin (100 units/mL) and streptomycin (100 μg/mL), were dispersed on a 96-well plate in an amount of 2×10^3 cells/90 μl/well. The cells were cultured in a CO2 incubator overnight. Thereafter, 10 μl of the aforementioned culture solution containing the compound HX354 or HX355 of 3-fold dilution series used in the aforementioned examples was added to the culture, and the mixture was then cultured. Three days later, 50 μl of CellTiter-Glo Luminescent Cell Viability Assay (Promega) was added to the culture, the mixture was then shaken for 2 minutes, and it was then left at rest for 15 minutes. Thereafter, luciferase luminescence was measured with a luminometer, and the measured luminescence was used as an indicator for the number of living cells
The concentrations (IC50 values) of HX354 and HX355, where the proliferation of the WiDr human colon cancer cells was inhibited by were obtained.
A general note: Cellular ATP, detected with luciferase, serves as a proxy for viable cell number.

This passage reports IC50 results from US8512995B2, “DNA encoding polypeptide involved in biosynthesis of herboxidiene” (Eisai R&D Management Co., Ltd., priority 2008, dated 2013).

In general, IC50 refers to the concentration needed to halve the response being measured. A higher IC50 goes with weaker potency.

`CCC(OC)C(C)C1OC1(C)CC(C)/C=C/C=C(\C)C1OC(CC(=O)O)CCC1C` (centres unmarked) [HX354] yielded an IC50 of 91 nM. The value for `CCC(O)C(C)C1OC1(C)CC(C)/C=C/C=C(\C)C1OC(CC(=O)O)CCC1C` (centres unmarked) [HX355] was 168 nM.
